From US11945807B2, “Splicing modulator antibody-drug conjugates and methods of use” (EISAI R&D MANAGEMENT CO., LTD., priority 2018, dated 2024)
Where two headings read alike, the source gives them in different places.

Tests used:
Ad2.1 pre-mRNA = experiment: In vitro splicing (IVS) RT-qPCR, HeLa nuclear extract, Ad2.1; assay type: biochemical
Experimental: (§1) To evaluate payload activity in a cell-free system, an in vitro splicing assay was performed. The payloads were incubated with nuclear extracts and pre-mRNA substrate minigenes.
(§2) HeLa nuclear extract preparation: HeLa S3 cell pellets were resuspended in hypotonic buffer (10 mM HEPES pH 7.9, 1.5 mM MgCl2, 10 mM KCl, 0.2 mM PMSF, 0.5 mM DTT) and the suspension was brought up to a total of 5 packed cell volume (PCV). After centrifugation, the supernatant was discarded, and the cells were brought up to 3 PCV with hypotonic buffer and incubated on ice for 10 min. Cells were lysed using a dounce homogenizer and then centrifuged. […]. The nuclei were gently mixed for 30 min before centrifuging. The supernatant (nuclear extract) was then dialyzed into storage buffer (20 mM HEPES pH 7.9, 100 mM KCl, 0.2 mM EDTA, 20% glycerol, 0.2 mM PMSF, 0.5 mM DTT). Protein concentration was determined using NanoDrop 8000 UV-Vis spectrophotometer (ThermoFisher Scientific).
IVS: All Ad2-derived sequences (Pellizzoni et al. (1998) Cell 95(5):615-24) were cloned into pcDNA3.1(+) vector (Promega) using 5′ EcoRI and 3′ Xbal restriction sites. The plasmids were linearized using Xbal and used as DNA templates in in vitro transcription reactions. The FtzΔi intron-less plasmid (Luo and Reed (1999) 96(26):14937-42) was linearized using EcoRI. All RNAs were in vitro transcribed and then purified using MEGAScript T7 (Invitrogen) and MegaClear (Invitrogen) kits, respectively. For splicing reactions using Ad2 variant pre-mRNAs, 1 μL reactions were prepared using 8 μg nuclear extracts prepared from HeLa S3, 2 ng pre-mRNA, 0.2 ng FTZΔi, and varying concentrations of compounds or DMSO. After a 15 min pre-incubation at 30° C., 1 μL splicing activation buffer (0.5 mM ATP, 20 mM creatine phosphate, 1.6 mM MgCl2) was added, and the reactions were incubated for 90 min at 30° C. The reactions were then quenched with 13 μL DMSO, and 25 nL was used for RT-qPCR. […]

Ad2.2 pre-mRNA = experiment: In vitro splicing (IVS) RT-qPCR, HeLa nuclear extract, Ad2.2; assay type: biochemical
Experimental: as §1, §2
IVS: All Ad2-derived sequences (Pellizzoni et al. (1998) Cell 95(5):615-24) were cloned into pcDNA3.1(+) vector (Promega) using 5′ EcoRI and 3′ Xbal restriction sites. The plasmids were linearized using Xbal and used as DNA templates in in vitro transcription reactions. The FtzΔi intron-less plasmid (Luo and Reed (1999) 96(26):14937-42) was linearized using EcoRI. All RNAs were in vitro transcribed and then purified using MEGAScript T7 (Invitrogen) and MegaClear (Invitrogen) kits, respectively. For splicing reactions using Ad2 variant pre-mRNAs, 1 μL reactions were prepared using 8 μg nuclear extracts prepared from HeLa S3, 2 ng pre-mRNA, 0.2 ng FTZΔi, and varying concentrations of compounds or DMSO. After a 15 min pre-incubation at 30° C., 1 μL splicing activation buffer (0.5 mM ATP, 20 mM creatine phosphate, 1.6 mM MgCl2) was added, and the reactions were incubated for 90 min at 30° C. The reactions were then quenched with 13 μL DMSO, and 25 nL was used for RT-qPCR. RT-qPCR reactions were prepared using TaqMan RNA-to-CT 1-step kit (Life Technologies), RNA from splicing reactions, Ad2 (forward: […]; reverse: […]; probe: […]) and Ftz (forward: […]; reverse: […]; probe: […]) mRNA primer-probe sets. Prism 7 (Graphpad) was used for non-linear regression curve fitting of the formed spliced product and normalized to the control (DMSO) sample. […] In the presence of payload, a decrease in the amount of spliced product was observed.

THP1.1 = experiment: Payload cell potency and lethality CTGlo 72 h, THP1.1; assay type: cell-based; conditions: cell line #3, 72 h, corresponding free payload
[1] = Caco-2 permeability of ADC payload; assay type: in vitro ADME; conditions: human, corresponding free payload
NCIH1650.1 = experiment: Payload cellular potency CTGlo-ATS 72 h, NCIH1650.1; assay type: cell-based; conditions: cell line #1, 72 h, corresponding free payload
NCIH1568.1 = experiment: Payload cellular potency CTGlo-ATS 72 h, NCIH1568.1; assay type: cell-based; conditions: cell line #2, 72 h, corresponding free payload
Caco-2 cells = experiment: Caco-2 permeability of ADC payload; assay type: in vitro ADME; conditions: unconjugated payload; apical to basolateral, 2 hours

Row | SMILES | IC50 (Ad2.1 pre-mRNA; biochemical splicing assay, corresponding free payload, read-out: qPCR-IVS-ATS GMean IC50 (nM) Ad2.1 HELA.2) | Ratio Ad2.1/2.2 (Ad2.1 pre-mRNA; ratio of IVS IC50 Ad2.1/Ad2.2, corresponding free payload) | IC50 (Ad2.2 pre-mRNA; biochemical splicing assay, corresponding free payload, read-out: qPCR-IVS-ATS GMean IC50 (nM) Ad2.2 HELA.2) | CTGlo-ATS GMean LD50 (nM) 72 h THP1.1 (THP1.1) | GI50 (THP1.1; read-out: CTGlo-ATS GMean GI50 (nM) 72 h THP1.1) | Papp A→B at 2 h, 10 NM ([1]; Caco-2, A-B, read-out: Perm. Mean Caco 2 A-B Perm (10e−6 cm/s)) | Papp B→A at 2 h, 10 NM ([1]; Caco-2, B-A, read-out: Perm. Mean Caco 2 B-A Perm (10e−6 cm/s)) | efflux ratio at 2 h, 10 NM ([1]; Caco-2 efflux ratio, read-out: ER) | CTGlo-ATS GMean LD50 (nM) 72 h NCIH1650.1 (NCIH1650.1) | GI50 (NCIH1650.1; read-out: CTGlo-ATS GMean GI50 (nM) 72 h NCIH1650.1) | CTGlo-ATS GMean LD50 (nM) 72 h NCIH1568.1 (NCIH1568.1) | GI50 (NCIH1568.1; read-out: CTGlo-ATS GMean GI50 (nM) 72 h NCIH1568.1) | IC50 (Ad2.1 pre-mRNA; unconjugated payload, HeLa nuclear extract, read-out: qPCR-IVS-AT S Gmean IC50 (nm) Ad2.1 HELA.2) | IC50 (Ad2.2 pre-mRNA; unconjugated payload, HeLa nuclear extract, read-out: qPCR-IVS-AT S GMean IC50 (nM) Ad2.2 HELA.2) | Permeability Mean Caco-2 A-B Perm (10e−6 cm/s) (Caco-2 cells)
1 | CC[C@H](O)[C@@H](C)[C@H]1O[C@@H]1C[C@@](C)(O)/C=C/C=C(\C)[C@H]1OC(=O)C[C@H](O)CC[C@@](C)(O)[C@@H](OC(=O)N2CCNCC2)/C=C/[C@@H]1C [D12, (2S,3S,6S,7R,10R,E)-7,10-dihydroxy-2-((R,2E,4E)-6-hydroxy-7-((2R,3R)-3-((2R,3S)-3-hydroxypentan-2-yl)oxiran-2-yl)-6-methylhepta-2,4-dien-2-yl)-3,7-dimethyl-12-oxooxacyclododec-4-en-6-yl piperazine-1-carboxylate] | 16.5 nM | 0.659 | 25.1 nM | 900.227 nM | 202 nM | 0.17 ×10⁻⁶ cm/s | 0.23 ×10⁻⁶ cm/s | 1.35 | >10000.00 nM | 258 nM | 1193.037 nM | 164 nM | – | – | –
2 | COc1cc2cc(c1Cl)N(C)C(=O)C[C@H](OC(=O)[C@H](C)N(C)C(=O)CCS)[C@]1(C)O[C@H]1[C@H](C)[C@@H]1C[C@@](O)(NC(=O)O1)[C@H](OC)/C=C/C=C(\C)C2 [DM1, reference compound] | – | – | – | – | – | – | – | – | – | – | – | – | > 25000 nM | < 25000 nM | 0.38 10e−6 cm/s
